Measured values published in US9556150B2, “Inhibitors of bruton's tyrosine kinase” (Hoffmann-La Roche Inc., priority 2013, dated 2017).

Target: Bruton's Tyrosine Kinase (BTK), inactivated state (Homo sapiens (Human), UniProt Q06187)
Experiment: Bruton's Tyrosine Kinase (BTK) Inhibition TR-FRET (Time Resolved FRET) competition assay
Assay type: binding
Details: TR-FRET competition with Kinase Tracer 178, BTK-Eu complex, 18-24 h at 14° C.
Protocol: Bruton's Tyrosine Kinase (BTK) Inhibition TR-FRET (Time Resolved FRET) Assay
This BTK competition assay measures compound potency (IC50) for the inactivated state of Bruton's Tyrosine Kinase using FRET (Förster/Fluorescence Resonance Energy Transfer) technology. The BTK-Eu complex was incubated on ice one hour prior to use at a starting concentration of 50 nM BTK-Bioease™: 10 nM Eu-streptavidin (Perkin-Elmer Catalog#AD0062). The assay buffer consisted of 20 mM HEPES (pH 7.15), 0.1 mM DTT, 10 mM MgCl2, 0.5 mg/ml BSA with 3% Kinase Stabilizer (Fremont Biosolutions, Catalog #STB-K02). After 1 h, the reaction mixture from above was diluted 10 fold in assay buffer to make 5 nM BTK: 1 nM Eu-Streptavidin complex (donor fluorophore). 18 μl of a mixture of 0.11 nM BTK-Eu and 0.11 nM Kinase Tracer 178 (Invitrogen, Catalog #PV5593,) with BTK-Eu alone as no negative control, was then dispensed into 384-well flat bottom plates (Greiner, 784076). Compounds to be tested in assay were prepared as 10× concentrations and serial dilution in half-log increments was performed in DMSO so as to generate 10 point curves. To initiate the FRET reaction, compounds prepared as 10× stock in DMSO was added to the plates and the plates were incubated 18-24 h at 14° C.
After the incubation the plates were read on a BMG Pherastar Fluorescent plate reader (or equivalent) and used to measure the emission energy from the europium donor fluorophore (620 nm emission) and the FRET (665 nm emission). The negative control well values were averaged to obtain the mean minimum. The positive “no inhibitor” control wells were averaged to obtain the mean maximum. Percent of maximal FRET was calculated using following equation: % max FRET=100×[(FSR cmpd−FSR mean min)/(FSR mean max−FSR mean min)]
where FSR=FRET Signal ratio. % Max FRET curves were plotted in Activity Base (Excel) and the IC50(%), hill slope, z′ and % CV were determined. The mean IC50 and standard deviation will be derived from duplicate curves (singlet inhibition curves from two independent dilutions) using Microsoft Excel.
Representative compound data for this assay are listed below in Table II.

Chain of Bruton's Tyrosine Kinase (BTK), inactivated state (Q06187 whole entry): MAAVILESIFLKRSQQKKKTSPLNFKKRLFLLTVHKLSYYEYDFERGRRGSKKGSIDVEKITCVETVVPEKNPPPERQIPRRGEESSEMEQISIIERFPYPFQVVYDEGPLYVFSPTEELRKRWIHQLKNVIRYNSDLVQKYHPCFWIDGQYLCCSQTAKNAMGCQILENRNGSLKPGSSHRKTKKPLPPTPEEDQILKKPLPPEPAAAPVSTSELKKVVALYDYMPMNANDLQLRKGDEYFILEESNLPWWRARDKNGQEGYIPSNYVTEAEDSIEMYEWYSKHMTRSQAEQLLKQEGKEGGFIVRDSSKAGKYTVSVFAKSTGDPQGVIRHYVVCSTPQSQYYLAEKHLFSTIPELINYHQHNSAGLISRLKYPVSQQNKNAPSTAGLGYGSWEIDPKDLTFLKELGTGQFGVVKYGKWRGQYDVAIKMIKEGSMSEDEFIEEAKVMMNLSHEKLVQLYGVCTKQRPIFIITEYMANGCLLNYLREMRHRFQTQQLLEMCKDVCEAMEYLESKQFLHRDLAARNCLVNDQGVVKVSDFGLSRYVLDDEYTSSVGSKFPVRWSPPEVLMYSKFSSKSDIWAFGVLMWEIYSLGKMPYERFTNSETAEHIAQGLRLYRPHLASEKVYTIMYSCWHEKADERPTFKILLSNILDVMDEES

| SMILES | IC50 [nM] |
| --- | --- |
| CN(C)C(=O)c1ccccc1Oc1ccc(-n2ncc(C(=O)c3cc4cc(C(=O)N5CCC(N(C)C(=O)OC(C)(C)C)C5)ccc4[nH]3)c2N)c(Cl)c1 (centres unmarked) [Example I-52, [1-(2-{5-Amino-1-[2-chloro-4-(2-dimethylcarbamoyl-phenoxy)-phenyl]-1Hpyrazole-4-carbonyl}-1H-indole-5-carbonyl)-pyrrolidin-3-yl]-methyl-carbamic acid tert-butyl ester] | 17 |
| COCCNC(=O)c1ccc2[nH]c(C(=O)c3cnn(-c4ccc(Oc5cccc(C#N)c5)cc4C)c3N)nc2c1 [Example I-40, 2-{5-Amino-1-[4-(3-cyano-phenoxy)-2-methyl-phenyl]-1H-pyrazole-4-carbonyl}-1H-benzoimidazole-5-carboxylic acid (2-methoxy-ethyl)-amide] | 23 |
| CN(C)C(=O)c1ccccc1Oc1ccc(-n2ncc(C(=O)c3cc4cc(C(=O)O)ccc4[nH]3)c2N)c(Cl)c1 [Example I-59, 2-{5-Amino-1-[2-chloro-4-(2-dimethylcarbamoyl-phenoxy)-phenyl]-1H-pyrazole-4-carbonyl}-1H-indole-5-carboxylic acid] | 12 |
| Cc1cc(Oc2cccc(F)c2F)cc(C)c1-n1ncc(C(=O)c2cc3cc(C(=O)N4CCOCC4)ccc3[nH]2)c1N [Example I-24, {5-Amino-1-[4-(2,3-difluoro-phenoxy)-2,6-dimethyl-phenyl]-1H-pyrazol-4-yl}-[5-(morpholine-4-carbonyl)-1H-indol-2-yl]-methanone] | 35 |
| Nc1c(C(=O)c2cc3cc(C(=O)N4CCOCC4)ccc3[nH]2)cnn1-c1ccc(Oc2ccccc2)cc1Cl [Example I-14, [5-Amino-1-(2-chloro-4-phenoxy-phenyl)-1H-pyrazol-4-yl]-[5-(morpholine-4-carbonyl)-1H-indol-2-yl]-methanone] | 0.46 |
| Nc1c(C(=O)c2cc3cc(C(=O)N4CCOCC4)ccc3[nH]2)cnn1-c1ccc(Oc2cc(F)ccc2F)nc1 [Example I-13, {5-Amino-1-[6-(2,5-difluoro-phenoxy)-pyridin-3-yl]-1H-pyrazol-4-yl}-[5-(morpholine-4-carbonyl)-1H-indol-2-yl]-methanone] | 530 |
| Cc1cc(Oc2cccc(C#N)c2)ccc1-n1ncc(C(=O)c2cc3cc(C(=O)NCCN)ccc3[nH]2)c1N [Example I-36, 2-{5-Amino-1-[4-(3-cyano-phenoxy)-2-methyl-phenyl]-1H-pyrazole-4-carbonyl}-H-indole-5-carboxylic acid (2-amino-ethyl)-amide] | 5 |

More lines, now with the values ahead:

| IC50 [nM] | SMILES |
| --- | --- |
| 4.6 | Cc1cc(Oc2ccccc2F)ccc1-n1ncc(C(=O)c2cc3cc(C(=O)N4CCOCC4)ccc3[nH]2)c1N [Example I-2, {5-Amino-1-[4-(2-fluoro-phenoxy)-2-methyl-phenyl]-1H-pyrazol-4-yl}-[5-(morpholine-4-carbonyl)-1H-indol-2-yl]-methanone] |
| 200 | Cc1cc(Oc2ccccn2)ccc1-n1ncc(C(=O)c2cc3cc(C(=O)N4CCOCC4)ccc3[nH]2)c1N [Example I-11, {5-Amino-1-[2-methyl-4-(pyridin-2-yloxy)-phenyl]-1H-pyrazol-4-yl}-[5-(morpholine-4-carbonyl)-1H-indol-2-yl]-methanone] |
| 1.3 | Nc1c(C(=O)c2cc3cc(C(=O)N4CCOCC4)ccc3[nH]2)cnn1-c1ccc(Oc2cccc(F)c2F)cc1Br [Example I-22, {5-Amino-1-[2-bromo-4-(2,3-difluoro-phenoxy)-phenyl]-1H-pyrazol-4-yl}-[5-(morpholine-4-carbonyl)-1H-indol-2-yl]-methanone] |
| 5.2 | Cc1cc(Oc2cccc(C#N)c2)ccc1-n1ncc(C(=O)c2cc3cc(C(=O)N4CCOCC4)ccc3[nH]2)c1N [Example I-18, 3-(4-{5-Amino-4-[5-(morpholine-4-carbonyl)-1H-indole-2-carbonyl]-pyrazol-1-yl}-3-methyl-phenoxy)-benzonitrile] |
